Test results published in PubChem BioAssay (NCI).
Several values for one entry are separate records, joined by “and”; a condition that tells them apart may be missing. Equal values may be shown once.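 Method: 48-hour compound exposure of cells in 96-well plates, five concentrations, linear interpolation of endpoints. GI50 = concentration required for 50% inhibition of growth. The concentration for full growth arrest is given as TGI.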

Key:
Test in all cases: growth of human tumour cells (NCI), 48 h
[1] = test system: COLO 205 colon
[2] = test system: HCT-15 colon
[3] = test system: HL-60(TB) leukemia
[4] = test system: HT29 colon
[5] = test system: OVCAR-4 ovarian
[6] = test system: RXF 393 renal
[7] = test system: SK-MEL-5 melanoma
[8] = test system: SK-OV-3 ovarian
[9] = test system: SR leukemia
[10] = test system: DU-145 prostate

SMILES | TGI [1] [µM] | TGI [2] | TGI [3] [µM] | TGI [4] [µM] | TGI [5] [µM] | TGI [6] | TGI [7] [µM] | TGI [8] [µM] | TGI [9] [µM] | GI50 [1] [µM] | GI50 [2] | GI50 [3] [µM] | GI50 [4] [µM] | GI50 [5] [µM] | GI50 [6] | GI50 [7] [µM] | GI50 [8] [µM] | GI50 [10] | TGI [10]
CCOC(=S)SCC(=O)O | > 100 | > 100 µM | 5.74 | > 100 | > 100 | > 100 µM | > 100 | > 100 | > 100 |  |  |  |  |  |  |  |  |  | 
O=S(=O)(N/N=C/c1cccc(/C=N/NS(=O)(=O)c2ccccc2)c1)c1ccccc1 | > 100 | > 100 µM | > 100 | > 100 | > 100 | > 100 µM | > 100 | > 100 | > 100 |  |  |  |  |  |  |  |  |  | 
C=C(C)CCOC(c1ccccc1)(c1ccccc1)c1ccccc1 | > 100 | > 100 µM | > 100 | 70.6 | > 100 | 82.8 µM | > 100 | > 100 |  |  |  |  |  |  |  |  |  |  | 
S=c1sc2c(n1-c1ccccc1)NC=NC2S (centres undefined) | > 100 | > 100 µM | > 100 | > 100 | > 100 | > 100 µM | > 100 | > 100 | > 100 |  |  |  |  |  |  |  |  |  | 
O=c1ccc2ccccc2cc1[O-].O=c1ccc2ccccc2cc1[O-].[O]=[U+2]=[O] | 71.7 | > 100 µM | 52.3 | 6.97 | 55.1 | 40 µM | 29.4 | 71.2 |  | 25.3 | 17.6 µM | 14 | 2.51 | 14.7 | 14.4 µM | 4.99 | 30.2 |  | 
C/C(=N/Nc1ccc([N+](=O)[O-])cc1[N+](=O)[O-])C(CC(C(=O)NCc1ccccc1)/C(C)=N\Nc1ccc([N+](=O)[O-])cc1[N+](=O)[O-])C(=O)NCc1ccccc1 (centres undefined) | 27.8 | 26 µM |  | 18.5 | 5.59 | 15 µM |  | 29.1 | 35.7 |  |  |  |  |  |  |  |  |  | 
Cc1ccc(-n2c3nc(=O)[nH]c(=O)c-3cc3cc([N+](=O)[O-])ccc32)cc1 | 41.6 | > 100 µM | > 100 | 37.2 | 98.8 | > 100 µM | 36.8 | > 100 |  | 15.6 | 25.5 µM | 3.98 | 12 | 24.1 | 49.9 µM | 16 | 37.1 | 22.9 µM | 55.1 µM
CC(=O)NNc1nc(C)c(C(=O)/C=C/c2ccc(NC(C)=O)cc2)s1 | > 100 | > 100 µM | > 100 | > 100 |  | > 100 µM | > 100 | > 100 |  |  |  |  |  |  |  |  |  |  | 
O=C(Nc1ccccc1-c1nn(C(=S)Nc2ccccc2)c(=S)n(C(=S)Nc2ccccc2)c1=O)C(F)(F)F | 44.4 | > 78.3 µM | 58.5 | > 78.9 | > 31.6 | > 100 µM | 26 | > 100 |  |  |  |  |  |  |  |  |  |  | 
CC(C)(C)c1cc2ccc(C(N)=O)cc2c(=O)[nH]1 | > 100 | > 100 µM | > 100 | > 100 | > 100 | > 100 µM | > 100 | > 100 | > 100 |  |  |  |  |  |  |  |  |  | 
CC(=O)OCCOCNC(=S)N/N=C(\C)c1cnccn1 | > 100 | > 100 µM | 76.1 | > 100 | > 100 | > 100 µM | 32.7 | > 100 | > 100 |  |  |  |  |  |  |  |  |  | 
O=C1CCCCN1c1ccccc1C#C/C=C\C#Cc1ccccc1C(F)(F)F | > 50 | 6.05 µM | 3.29 | 2.63 | 19.1 | 2.73 µM | 12.7 | > 50 |  | 11.5 | 1.53 µM | 1.27 | 0.97 | 3.6 | 0.526 µM | 2.75 | > 50 | 1.68 µM | 8.5 µM
CN(C)CC1CC/C(=C\c2ccc(O)cc2)C1=O (centres undefined) | 3.77 | 5.48 µM | 2.91 | 11.5 | 18.5 | 4.8 µM | 20.4 | 32.3 |  |  |  |  |  |  |  |  |  |  | 29.6 µM
Cc1ccc(Oc2ccc(C)cc2N)cc1 | > 100 | > 100 µM | > 100 | > 100 | > 100 | > 100 µM | > 100 | > 100 | > 100 |  |  |  |  |  |  |  |  |  | 
CC(C)(C)c1cc2c(O)c3cccc4c(=O)c5cccc6c5-c(c34)c2c(c1)c6=O | > 100 | > 100 µM | > 100 | > 100 | > 100 | 97.8 µM |  | > 100 | 30.4 |  |  |  |  |  |  |  |  |  | 
Cc1ccc(/C=C/C(=O)CCN(C)C)cc1 | 29.4 | 38.2 µM | 47 | 33.4 | 30.4 | 41.6 µM | 34.4 | > 100 | 62.7 |  |  |  |  |  |  |  |  |  | 
COc1nc(NC2OC(COC(C)=O)C(OC(C)=O)C(OC(C)=O)C2OC(C)=O)c2c(OC(C)=O)cc(=O)oc2n1 (centres undefined) | > 100 | > 100 µM | > 100 | > 100 | > 100 | > 100 µM | > 100 | > 100 |  |  |  |  |  |  |  |  |  |  | 
CCCCCCCCCCCCCCCC[N+](C)(C)Cc1ccccc1 | 3.24 | 15.8 µM and > 30.4 µM | 2.45 | 2.36 | 4.55 | 1.97 µM and 1.35 µM | 2.62 | 3.7 |  | 1.65 | 2.86 µM and 3.24 µM | 0.859 | 1.01 | 1.59 | 0.606 µM and 0.306 µM | 1.33 | 1.68 | 1.7 µM and 1.62 µM | 3.22 µM and 3.12 µM
N[C@@H]1CCCC[C@@H]1N.O=P([O-])([O-])CN(CCN(CP(=O)([O-])[O-])CP(=O)([O-])[O-])CP(=O)([O-])[O-].[Pt+2] | > 25 | > 25 µM | > 25 | > 25 | > 25 | > 25 µM | > 25 | > 25 |  | > 25 | > 25 µM | > 25 | > 25 | > 25 | > 25 µM | > 25 | > 25 |  | 
